Experimental data from patent US4454330A, “Two-functional-group-containing terpenoids, processes for the preparation of the same, and anti-ulcer agents containing the same” (Eisai Co., Ltd., priority 1980, dated 1984).

System: cold-restaint stress ulcer
Experiment: Effect on cold-restraint stress ulcer (Levine' method, rats)
Format: in vivo, rats (SD family
Settings: SD rats, female, about 170 g, 8-10 weeks age
Description: (1) Effect on Cold-Restaint Stress Ulcer
The inhibition effect of the test compound on the cold-restaint stress ulcer was determined according to the Levine' method using rats (SD family, female, weight about 170 g, 8-10 weeks age). The test compounds are set forth below.

Row | SMILES | Inhibition Ratio (%) on the occurrence of the cold restrictive stress ulcer
1 | CC(=CCO)CCC=C(C)CCC=C(C)C(=O)O [Compound A, 12-Hydroxy-2,6,10-trimethyl-2,6,10-dodecatrienoic acid] | 74.6%
2 | CC(=CCO)CCC=C(C)CCC=C(C)CCC=C(C)C(=O)O [Compound C, 16-Hydroxy-2,6,10,14-tetramethyl-2,6,10,14-hexadecatetraenoic acid] | 79.2%
3 | CC(=CCO)CCC=C(C)CCC=C(C)CCC=C(C)CCC=C(C)C(=O)O [Compound D, 20-Hydroxy-2,6,10,14,18-pentamethyl-2,6,10,14,18-eicosapentaenoic acid] | 49.5%
